# Laboratory results from patent US12686673B2 (Blueprint Medicines Corporation, priority 2020, dated 2026).
# Counter-ions that a name gives are not always drawn. Like-named read-outs stand apart in the source and are kept apart here.
# What was measured:
# Type in all cases: cell-based
# [1] = target: EGFR(D770_N771insSVD) expressing Ba/F3 stable cell line (Homo sapiens, UniProt P00533, DUP768-770, cells depend on it); experiment: Cellular proliferation (Alamar Blue) assay, EGFR D770_N771insSVD Ba/F3; details: 72 hr, read-out: D770 IC50
# Procedure: (§1) • 1. EGFR(D770_N771insSVD) expressing Ba/F3 stable cell line • 2. EGFR (A767_dupASV) expressing Ba/F3 stable cell line • 3. A431 cells • 4. EGFR (H773insNPH) expressing Ba/F3 stable cell line • 5. HER2 (A775_G776insYVMA) expressing Ba/F3 stable cell line Assay Procedure: • 1. Seed cells at 5000 for A431 and 15,000 cells for Ba/F3 in 100 μL/well in complete media (for A431: DMEM with […] and for Ba/F3 cells: RPMI with 10% FBS) in 96-well tissue culture plate. Leave outer wells without cells for background measurements. Incubate at 37 degree Celsius in […] humidified incubator for 16-18 hours. • 2. Add 0.025 ml of 5× concentration compound dilution or DMSO control. Final compound concentration range is 10-0.0005 μM prepared in 3-fold serial dilutions. Incubate for 72 hr at 37 degree Celsius in […] humidified incubator. • 3. Add 0.0125 ml Alamar Blue™ reagent to each well with multi-channel pipette and tap gently on each side of the plate to mix. Incubate for 3 hours at 37 degree Celsius in 5% CO2 humidified incubator. • 4. […] Data analysis was performed using XLfit 5.5.0.5.
# A431 cells = experiment: Cellular proliferation (Alamar Blue) assay, A431
# Procedure: as §1
# [2] = target: EGFR (A767_dupASV) expressing Ba/F3 stable cell line (Homo sapiens, UniProt P00533, DUP767-769, cells depend on it); experiment: Cellular proliferation (Alamar Blue) assay, EGFR A767_dupASV Ba/F3; details: 72 hr, read-out: A767 IC50
# Procedure: as §1
# [3] = Homo sapiens, A-431; A431 cells, 72 hr, Alamar Blue; read-out: A431 IC50
# [4] = Homo sapiens, A-431; A431 cells, Alamar Blue, 72 hr; read-out: A431 IC50
# Sequence of EGFR (A767_dupASV) expressing Ba/F3 stable cell line (P00533 with tags, fused parts or gaps DUP767-769): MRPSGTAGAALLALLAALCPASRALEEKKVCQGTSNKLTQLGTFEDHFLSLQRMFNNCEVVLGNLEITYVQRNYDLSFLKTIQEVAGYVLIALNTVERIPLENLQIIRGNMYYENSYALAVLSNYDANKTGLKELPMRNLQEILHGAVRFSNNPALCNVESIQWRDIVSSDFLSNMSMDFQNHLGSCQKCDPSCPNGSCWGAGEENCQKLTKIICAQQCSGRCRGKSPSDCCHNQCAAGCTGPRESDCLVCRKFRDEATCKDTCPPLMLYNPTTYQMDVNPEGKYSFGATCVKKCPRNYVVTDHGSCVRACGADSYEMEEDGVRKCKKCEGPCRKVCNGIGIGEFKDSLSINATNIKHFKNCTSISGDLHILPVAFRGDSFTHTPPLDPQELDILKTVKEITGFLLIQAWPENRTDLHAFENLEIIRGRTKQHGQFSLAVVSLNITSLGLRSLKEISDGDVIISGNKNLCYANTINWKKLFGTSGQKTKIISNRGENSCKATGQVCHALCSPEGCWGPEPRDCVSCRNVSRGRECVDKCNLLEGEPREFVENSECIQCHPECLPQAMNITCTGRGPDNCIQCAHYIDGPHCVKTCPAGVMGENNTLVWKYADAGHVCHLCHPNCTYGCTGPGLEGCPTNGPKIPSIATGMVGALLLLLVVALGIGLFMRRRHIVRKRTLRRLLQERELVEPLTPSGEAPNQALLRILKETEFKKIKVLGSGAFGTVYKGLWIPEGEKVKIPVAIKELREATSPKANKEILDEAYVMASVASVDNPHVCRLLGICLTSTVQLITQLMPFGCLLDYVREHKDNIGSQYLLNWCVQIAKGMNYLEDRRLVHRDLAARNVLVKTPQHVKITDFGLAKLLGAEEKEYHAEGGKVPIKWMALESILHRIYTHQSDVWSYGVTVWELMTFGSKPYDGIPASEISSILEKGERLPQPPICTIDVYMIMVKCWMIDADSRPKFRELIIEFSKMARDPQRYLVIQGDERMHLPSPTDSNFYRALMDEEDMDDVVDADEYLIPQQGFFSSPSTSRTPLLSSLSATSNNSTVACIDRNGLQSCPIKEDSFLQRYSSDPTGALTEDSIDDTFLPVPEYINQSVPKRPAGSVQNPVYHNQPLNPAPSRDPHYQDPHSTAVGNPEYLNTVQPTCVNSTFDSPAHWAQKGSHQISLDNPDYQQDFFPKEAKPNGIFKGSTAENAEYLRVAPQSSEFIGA
# Sequence of EGFR(D770_N771insSVD) expressing Ba/F3 stable cell line (P00533 with tags, fused parts or gaps DUP768-770): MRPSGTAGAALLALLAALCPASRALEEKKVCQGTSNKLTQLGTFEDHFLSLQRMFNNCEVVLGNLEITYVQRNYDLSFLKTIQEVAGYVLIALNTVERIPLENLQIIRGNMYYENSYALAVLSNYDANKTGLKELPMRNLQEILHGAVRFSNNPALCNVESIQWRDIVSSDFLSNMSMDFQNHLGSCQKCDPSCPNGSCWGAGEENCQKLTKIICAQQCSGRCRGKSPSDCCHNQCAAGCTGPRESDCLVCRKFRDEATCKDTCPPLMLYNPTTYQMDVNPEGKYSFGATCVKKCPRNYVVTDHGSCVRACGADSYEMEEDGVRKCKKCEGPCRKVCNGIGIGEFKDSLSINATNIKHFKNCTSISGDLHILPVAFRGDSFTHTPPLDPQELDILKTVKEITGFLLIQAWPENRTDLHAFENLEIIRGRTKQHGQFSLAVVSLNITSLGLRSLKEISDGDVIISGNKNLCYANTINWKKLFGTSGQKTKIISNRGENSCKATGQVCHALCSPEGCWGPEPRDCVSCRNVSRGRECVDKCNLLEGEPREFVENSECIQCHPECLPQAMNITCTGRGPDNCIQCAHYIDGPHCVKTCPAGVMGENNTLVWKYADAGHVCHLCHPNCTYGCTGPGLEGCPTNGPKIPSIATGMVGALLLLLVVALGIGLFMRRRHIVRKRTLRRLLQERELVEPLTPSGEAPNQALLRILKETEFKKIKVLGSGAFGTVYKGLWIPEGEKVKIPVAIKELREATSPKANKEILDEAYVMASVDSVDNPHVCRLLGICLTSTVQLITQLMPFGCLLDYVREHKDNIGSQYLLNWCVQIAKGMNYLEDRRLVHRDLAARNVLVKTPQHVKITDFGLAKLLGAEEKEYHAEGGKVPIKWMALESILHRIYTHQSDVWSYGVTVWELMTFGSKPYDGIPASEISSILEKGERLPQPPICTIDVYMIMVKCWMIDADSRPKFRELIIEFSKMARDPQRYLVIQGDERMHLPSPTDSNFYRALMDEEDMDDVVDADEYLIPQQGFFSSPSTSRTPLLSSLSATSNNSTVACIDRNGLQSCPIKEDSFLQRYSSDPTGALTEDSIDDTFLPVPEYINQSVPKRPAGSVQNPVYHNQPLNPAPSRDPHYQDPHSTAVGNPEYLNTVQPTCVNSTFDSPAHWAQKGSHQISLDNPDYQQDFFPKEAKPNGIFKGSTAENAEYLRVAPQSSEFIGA
SMILES,GI50 [1],IC50 (A431 cells; [3]),GI50 [2],IC50 (A431 cells; [4])
"C=C=CC(=O)Nc1ccc(F)c(Nc2nc(Nc3cnn(C)c3)ncc2-c2ccc(C(F)(F)F)cc2)c1 [Compound 251, N-(4-fluoro-3-((2-((1-methyl-1H-pyrazol-4-yl)amino)-5-(4-(trifluoromethyl)phenyl)pyrimidin-4-yl)amino)phenyl)buta-2,3-dienamide]",10 µM,9.77 µM,9.88 µM,–
"C=CC(=O)Nc1ccc(N(C)C)c(Nc2nc(Nc3cnn(C)c3)ncc2-c2ccc(C(F)(F)F)cc2)c1 [Compound 119, N-(4-(dimethylamino)-3-((2-((1-methyl-1H-pyrazol-4-yl)amino)-5-(4-(trifluoromethyl)phenyl)pyrimidin-4-yl)amino)phenyl)acrylamide trifluoroacetate]",> 10 µM,–,> 10 µM,> 10 µM
"C=CC(=O)Nc1ccc(F)c(Nc2nc(Nc3cnn(C)c3)ncc2C2=CCN(C)C2)c1 [Compound 226, N-[4-fluoro-3-({2-[(1-methyl-1H-pyrazol-4-yl)amino]-5-(1-methyl-2,5-dihydro-1H-pyrrol-3-yl)pyrimidin-4-yl}amino)phenyl]prop-2-enamide]",0.793 µM,1.78 µM,1.61 µM,–
"C=CC(=O)Nc1ccc(F)c(Nc2nc(Nc3ccsc3)ncc2-c2ccc(C(F)(F)F)cc2)c1 [Compound 46, N-(4-fluoro-3-((2-(thiophen-3-ylamino)-5-(4-(trifluoromethyl)phenyl)pyrimidin-4-yl)amino)phenyl)acrylamide trifluoroacetate]",0.973 µM,–,2.74 µM,0.523 µM
"C=CC(=O)Nc1ccc(F)c(Nc2nc(Nc3ccc(=O)[nH]c3)ncc2Cl)c1 [Compound 2, N-(3-((5-chloro-2-((6-oxo-1,6-dihydropyridin-3-yl)amino)pyrimidin-4-yl)amino)-4-fluorophenyl)acrylamide]",9.24 µM,–,> 10 µM,> 10 µM
"C=CC(=O)Nc1ccc(F)c(Nc2nc(Nc3cccc(CN(C)C)c3)ncc2-c2ccc(C(F)(F)F)cc2)c1 [Compound 218, N-(3-((2-((3-((dimethylamino)methyl)phenyl)amino)-5-(4-(trifluoromethyl)phenyl)pyrimidin-4-yl)amino)-4-fluorophenyl)acrylamide]",1.69 µM,1.58 µM,8.47 µM,–
"C=CC(=O)Nc1cccc(Oc2nc(Nc3ccc(N4CCN(C)CC4)cc3OC)ncc2-c2ccc(C(F)(F)F)cc2)c1 [Compound 191, N-(3-((2-((2-methoxy-4-(4-methylpiperazin-1-yl)phenyl)amino)-5-(4-(trifluoromethyl)phenyl)pyrimidin-4-yl)oxy)phenyl)acrylamide]",> 10 µM,–,9.65 µM,0.898 µM
"C=CC(=O)Nc1ccc(F)c(Nc2nc(NCCN(C)C)ncc2-c2ccc(C(F)(F)F)cc2)c1 [Compound 43, N-(3-((2-((2-(dimethylamino)ethyl)amino)-5-(4-(trifluoromethyl)phenyl)pyrimidin-4-yl)amino)-4-fluorophenyl)acrylamide trifluoroacetate]",> 10 µM,–,> 10 µM,3.67 µM
"C=CC(=O)Nc1ccc(C#Cc2ccccc2)c(Nc2nc(Nc3cnn(C)c3)ncc2Cl)c1 [Compound 178, N-[3-({5-chloro-2-[(1-methyl-1H-pyrazol-4-yl)amino]pyrimidin-4-yl}amino)-4-(2-phenylethynyl)phenyl] prop-2-enamide]",> 10 µM,–,> 10 µM,9.97 µM
"C=CC(=O)Nc1ccc(F)c(Nc2nc(Nc3cnn(C)c3)ncc2-c2ccc(NC(C)=O)cc2)c1 [Compound 58, N-(3-((5-(4-acetamidophenyl)-2-((1-methyl-1H-pyrazol-4-yl)amino)pyrimidin-4-yl)amino)-4-fluorophenyl)acrylamide]",2.89 µM,–,2.66 µM,> 10 µM
"C=CC(=O)Nc1cccc(N(C)c2nc(Nc3cnn(C)c3)ncc2-c2ccc(C(F)(F)F)cc2)c1 [Compound 229, N-(3-(methyl(2-((1-methyl-1H-pyrazol-4-yl)amino)-5-(4-(trifluoromethyl)phenyl)pyrimidin-4-yl)amino)phenyl)acrylamide]",0.318 µM,0.222 µM,0.426 µM,–
"C=CC(=O)Nc1ccc(F)c(Nc2nc(Nc3cnn(C)c3)ncc2-c2cccc(OC(F)F)c2)c1 [Compound 143, N-(3-((5-(3-(difluoromethoxy)phenyl)-2-((1-methyl-1H-pyrazol-4-yl)amino)pyrimidin-4-yl)amino)-4-fluorophenyl)acrylamide trifluoroacetate]",0.276 µM,–,0.3 µM,0.235 µM
"C=CC(=O)Nc1ccc(F)c(Nc2nc(Nc3ccccc3Cl)ncc2-c2ccc(C(F)(F)F)cc2)c1 [Compound 40, N-(3-((2-((2-chlorophenyl)amino)-5-(4-(trifluoromethyl)phenyl)pyrimidin-4-yl)amino)-4-fluorophenyl)acrylamide trifluoroacetate]",> 10 µM,–,> 10 µM,3.83 µM
"C=CC(=O)Nc1ccc(F)c(Nc2nc(Nc3cnn(C)c3)ncc2C2=CCN(C)CC2)c1 [Compound 114, N-(4-fluoro-3-((5-(1-methyl-1,2,3,6-tetrahydropyridin-4-yl)-2-((1-methyl-1H-pyrazol-4-yl)amino)pyrimidin-4-yl)amino)phenyl)acrylamide]",1.84 µM,–,0.964 µM,0.816 µM
"C=CC(=O)Nc1cc(Nc2nc(Nc3cnn(C)c3)ncc2-c2ccc(C(F)(F)F)cc2)ccn1 [Compound 200, N-(4-((2-((1-methyl-1H-pyrazol-4-yl)amino)-5-(4-(trifluoromethyl)phenyl)pyrimidin-4-yl)amino)pyridin-2-yl)acrylamide]",6.02 µM,1.28 µM,2.76 µM,–
"C=CC(=O)Nc1cccc(Nc2nc(Nc3cnn(C)c3)nc(NC)c2-c2ccc(C(F)(F)F)cc2)c1 [Compound 224, N-[3-({2-[(1-methyl-1H-pyrazol-4-yl)amino]-6-(methylamino)-5-[4-(trifluoromethyl)phenyl]pyrimidin-4-yl}amino)phenyl] prop-2-enamide]",> 10 µM,> 10 µM,> 10 µM,–
"C=CC(=O)Nc1cccc(Oc2nc(Nc3cnn(C)c3)ncc2-c2cncc(C)c2)c1 [Compound 183, N-[3-({2-[(1-methyl-1H-pyrazol-4-yl)amino]-5-(5-methylpyridin-3-yl)pyrimidin-4-yl}oxy)phenyl]prop-2-enamide]",0.32 µM,–,0.286 µM,0.292 µM
"C=CC(=O)Nc1ccc(F)c(Nc2nc(Nc3cnn(C)c3)ncc2-c2cccc(CN(C)C)c2)c1 [Compound 134, N-(3-((5-(3-((dimethylamino)methyl)phenyl)-2-((1-methyl-1H-pyrazol-4-yl)amino)pyrimidin-4-yl)amino)-4-fluorophenyl)acrylamide]",> 10 µM,–,8.41 µM,3.28 µM
"C=CC(=O)Nc1ccc(F)c(Nc2nc(Nc3cnn(C)c3)ncc2C2=CCOCC2)c1 [Compound 124, N-(3-((5-(3,6-dihydro-2H-pyran-4-yl)-2-((1-methyl-1H-pyrazol-4-yl)amino)pyrimidin-4-yl)amino)-4-fluorophenyl)acrylamide]",0.328 µM,–,0.284 µM,1.53 µM
"CN(C)C/C=C/C(=O)Nc1cccc(F)c1CNc1nc(Nc2cnn(C)c2)ncc1Cl [Compound 174, (E)-N-(2-(((5-chloro-2-((1-methyl-1H-pyrazol-4-yl)amino)pyrimidin-4-yl)amino)methyl)-3-fluorophenyl)-4-(dimethylamino)but-2-enamide]",> 10 µM,–,> 10 µM,> 10 µM
C=CC(=O)Nc1cccc(-n2c3cc(C(F)(F)F)ccc3c3cnc(Nc4cnn(C)c4)nc32)c1 [Compound 209],7.97 µM,5.41 µM,9.86 µM,–
"C=CC(=O)Nc1ccc(F)c(Nc2nc(Nc3cnn(C)c3)nnc2Cl)c1 [Compound 155, N-(3-((6-chloro-3-((1-methyl-1H-pyrazol-4-yl)amino)-1,2,4-triazin-5-yl)amino)-4-fluorophenyl)acrylamide]",1.41 µM,–,2.48 µM,6.46 µM
"C=CC(=O)Nc1cccc(Oc2nc(Nc3ccc(CN(C)C)cc3)ncc2-c2ccc(C(F)(F)F)cc2)c1 [Compound 234, N-(3-((2-((4-((dimethylamino)methyl)phenyl)amino)-5-(4-(trifluoromethyl)phenyl)pyrimidin-4-yl)oxy)phenyl)acrylamide]",0.383 µM,1.13 µM,0.948 µM,–
"C=CC(=O)Nc1ccc(F)c(Nc2nc(Nc3nc(C)cs3)ncc2-c2ccc(C(F)(F)F)cc2)c1 [Compound 213, N-(4-fluoro-3-((2-((4-methylthiazol-2-yl)amino)-5-(4-(trifluoromethyl)phenyl)pyrimidin-4-yl)amino)phenyl)acrylamide]",1.29 µM,1.82 µM,3.68 µM,–
